Assay results taken from patent US12662469B2 (SIRONAX LTD, priority 2018, dated 2026).

System: Cell Necrosis
Assay: Cell necrosis assay / cell viability assay (necrosis inhibitor activity)
Format: cell-based
Details: not given

Q: CN(C)CCC1Oc2cc(F)c(OC3CN(C(=O)N4N=CC[C@H]4c4cc(F)cc(F)c4)C3)cc2NC1=O (stereo partly drawn) [Compound 249, 6-((1-((S)-5-(3,5-difluorophenyl)-4,5-dihydro-1H-pyrazole-1-carbonyl)azetidin-3-yl)oxy)-2-(2-(dimethylamino)ethyl)-7-fluoro-2H-benzo[b][1,4]oxazin-3(4H)-one] was tested. Which EC50 did it give?
A: 1 to 1000 nM

Same assay, conditions: necrosis inhibitor activity; compounds outside 14-191; read-out: EC50

Q: Which EC50 does the source give for N#Cc1cc(F)cc(OC2CN(C(=O)N3N=CC[C@H]3c3cc(F)cc(F)c3)C2)c1 [Compound 237, (S)-3-((1-(5-(3,5-difluorophenyl)-4,5-dihydro-1H-pyrazole-1-carbonyl)azetidin-3-yl)oxy)-5-fluorobenzonitrile] here?
A: 1 to 1000 nM

Q: How did the EC50 turn out when N#Cc1cc(OC2CN(C(=O)N3N=CC[C@H]3c3cc(F)cc(F)c3)C2)c(F)cc1F [Compound 238, (S)-5-((1(5-(3,5-difluorophenyl)-4,5-dihydro-1H-pyrazole-1-carbonyl)azetidin-3-yl)oxy)-2,4-difluorobenzonitrile] was run?
A: 1 to 1000 nM

Q: With NC(=O)c1cc(OC2CN(C(=O)N3N=CC[C@H]3c3cc(F)cc(F)c3)C2)c(F)cc1F [Compound 239, (S)-5-((1-(5-(3,5-difluorophenyl)-4,5-dihydro-1H-pyrazole-1-carbonyl)azetidin-3-yl)oxy)-2,4-difluorobenzamide] as the compound, how does the EC50 read?
A: 1 to 1000 nM

Q: For N#Cc1cnc2ccc(O[C@@H]3CCN(C(=O)N4N=CC[C@H]4c4cc(F)cc(F)c4)C3)nn12 [Compound 240, 6-(((R)-1-((S)-5-(3,5-difluorophenyl)-4,5-dihydro-1H-pyrazole-1-carbonyl)pyrrolidin-3-yl)oxy)imidazo[1,2-b]pyridazine-3-carbonitrile], which EC50 is on record?
A: 1 to 1000 nM

Q: How did the EC50 turn out when NC(=O)c1cnc2ccc(O[C@@H]3CCN(C(=O)N4N=CC[C@H]4c4cc(F)cc(F)c4)C3)nn12 [Compound 241, 6-(((R)-1-((S)-5-(3,5-difluorophenyl)-4,5-dihydro-1H-pyrazole-1-carbonyl)pyrrolidin-3-yl)oxy)imidazo[1,2-b]pyridazine-3-carboxamide] was run?
A: 1 to 1000 nM

Q: How did the EC50 turn out when O=C(N1CC[C@@H](Oc2ccnc3ccnn23)C1)N1N=CC[C@H]1c1cc(F)cc(F)c1 [Compound 242, ((S)-5-(3,5-difluorophenyl)-4,5-dihydro-1H-pyrazol-1-yl)((R)-3-(pyrazolo[1,5-a]pyrimidin-7-yloxy)pyrrolidin-1-yl)methanone] was run?
A: 1 to 1000 nM

Q: Which EC50 does the source give for O=C1COc2cccc(O[C@@H]3CCN(C(=O)N4N=CC[C@H]4c4cc(F)cc(F)c4)C3)c2N1 [Compound 243, 5-(((R)-1-((S)-5-(3,5-difluorophenyl)-4,5-dihydro-1H-pyrazole-1-carbonyl)pyrrolidin-3-yl)oxy)-2H-benzo[b][1,4]oxazin-3(4H)-one] here?
A: 1 to 1000 nM

Q: Nc1ccc(F)c(C=C2CN(C(=O)N3N=CC[C@H]3c3cc(F)cc(F)c3)C2)n1 [Compound 244] was tested. Which EC50 did it give?
A: 1 to 1000 nM

Q: For NC(=O)CC[C@@H]1Oc2cc(F)c(OC3CN(C(=O)N4N=CC[C@H]4c4cc(F)cc(F)c4)C3)cc2NC1=O [Compound 245, 3-((S)-6-((1-((S)-5-(3,5-difluorophenyl)-4,5-dihydro-1H-pyrazole-1-carbonyl)azetidin-3-yl)oxy)-7-fluoro-3-oxo-3,4-dihydro-2H-benzo[b][1,4]oxazin-2-yl)propanamide], which EC50 is on record?
A: 1 to 1000 nM

Q: For O=C1Nc2cc(OC3CN(C(=O)N4N=CC[C@H]4c4cc(F)cc(F)c4)C3)c(F)cc2OC1CCO (stereo partly drawn) [Compound 246, 6-((1-((S)-5-(3,5-difluorophenyl)-4,5-dihydro-1H-pyrazole-1-carbonyl)azetidin-3-yl)oxy)-7-fluoro-2-(2-hydroxyethyl)-2H-benzo[b][1,4]oxazin-3(4H)-one], which EC50 is on record?
A: 1 to 1000 nM

Q: COCCC1Oc2cc(F)c(OC3CN(C(=O)N4N=CC[C@H]4c4cc(F)cc(F)c4)C3)cc2N(C)C1=O (some centres unmarked) [Compound 247] was tested. Which EC50 did it give?
A: 1 to 1000 nM

Q: How did the EC50 turn out when CN1C(=O)C(CCO)Oc2cc(F)c(OC3CN(C(=O)N4N=CC[C@H]4c4cc(F)cc(F)c4)C3)cc21 (stereo partly drawn) [Compound 248, 6-((1-((S)-5-(3,5-difluorophenyl)-4,5-dihydro-1H-pyrazole-1-carbonyl)azetidin-3-yl)oxy)-7-fluoro-2-(2-hydroxyethyl)-4-methyl-2H-benzo[b][1,4]oxazin-3(4H)-one] was run?
A: 1 to 1000 nM

Q: CCC1Oc2cc(F)c(OC3CN(C(=O)N4N=CC[C@H]4c4cc(F)cc(F)c4)C3)cc2NC1=O (stereo partly drawn) [Compound 250, 6-((1-((S)-5-(3,5-difluorophenyl)-4,5-dihydro-1H-pyrazole-1-carbonyl)azetidin-3-yl)oxy)-2-ethyl-7-fluoro-2H-benzo[b][1,4]oxazin-3(4H)-one] was tested. Which EC50 did it give?
A: 1 to 1000 nM

Q: Nc1ccc(F)c(OC2CN(C(=O)N3N=CC[C@H]3c3cc(F)cc(F)c3)C2)n1 [Compound 251, (S)-(3-((6-amino-3-fluoropyridin-2-yl)oxy)azetidin-1-yl)(5-(3,5-difluorophenyl)-4,5-dihydro-1H-pyrazol-1-yl)methanone] was tested. Which EC50 did it give?
A: 1 to 1000 nM

Q: For O=C(N1CC(Oc2nc(NCCO)ccc2F)C1)N1N=CC[C@H]1c1cc(F)cc(F)c1 [Compound 252, (S)(5-(3,5-difluorophenyl)-4,5-dihydro-1H-pyrazol-1-yl)(3-((3-fluoro-6-((2-hydroxyethyl)amino)pyridin-2-yl)oxy)azetidin-1-yl)methanone], which EC50 is on record?
A: 1 to 1000 nM

Q: How did the EC50 turn out when O=C(N1CC(Oc2cc3[nH]c(=O)ccc3cc2F)C1)N1N=CC[C@H]1c1cc(F)cc(F)c1 [Compound 253, (S)-7-((1-(5-(3,5-difluorophenyl)-4,5-dihydro-1H-pyrazole-1-carbonyl)140zetidine-3-yl)oxy)-6-fluoroquinolin-2(1H)-one] was run?
A: 1 to 1000 nM

Q: With O=C(N1CC(Nc2ncc(F)cc2F)C1)N1N=CC[C@H]1c1cc(F)cc(F)c1 [Compound 254, (S)-(5-(3,5-difluorophenyl)-4,5-dihydro-1H-pyrazol-1-yl)(3-((3,5-difluoropyridin-2-yl)amino)azetidin-1-yl)methanone] as the compound, how does the EC50 read?
A: 1 to 1000 nM

Q: Which EC50 does the source give for O=C(N1CC(Nc2ccc(F)cc2F)C1)N1N=CCC1c1cc(F)cc(F)c1 (centres unmarked) [Compound 255, (5-(3,5-difluorophenyl)-4,5-dihydro-1H-pyrazol-1-yl)(3-((2,4-difluorophenyl)amino)azetidin-1-yl)methanone] here?
A: 1 to 1000 nM

Q: Which EC50 does the source give for O=C(N1CC(Oc2ccc3ncc(=O)[nH]c3n2)C1)N1N=CC[C@H]1c1cc(F)cc(F)c1 [Compound 256, (S)-6-((1-(5-(3,5-difluorophenyl)-4,5-dihydro-1H-pyrazole-1-carbonyl)azetidin-3-yl)oxy)pyrido[2,3-b]pyrazin-3(4H)-one] here?
A: 1 to 1000 nM

Q: How did the EC50 turn out when COC(=O)c1cc2sc(OC3CN(C(=O)N4N=CC[C@H]4c4cc(F)cc(F)c4)C3)nc2[nH]1 [Compound 257, methyl (S)-2-((1-(5-(3,5-difluorophenyl)-4,5-dihydro-1H-pyrazole-1-carbonyl)azetidin-3-yl)oxy)-4H-pyrrolo[2,3-d]thiazole-5-carboxylate] was run?
A: 1 to 1000 nM

Q: Which EC50 does the source give for CNC(=O)c1cc2sc(OC3CN(C(=O)N4N=CC[C@H]4c4cc(F)cc(F)c4)C3)nc2[nH]1 [Compound 258, (S)-2-((1-(5-(3,5-difluorophenyl)-4,5-dihydro-1H-pyrazole-1-carbonyl)azetidin-3-yl)oxy)-N-methyl-4H-pyrrolo[2,3-d]thiazole-5-carboxamide] here?
A: 1 to 1000 nM

Q: For O=C(O)c1cc2sc(OC3CN(C(=O)N4N=CC[C@H]4c4cc(F)cc(F)c4)C3)nc2[nH]1 [Compound 259, (S)-2-((1(5-(3,5-difluorophenyl)-4,5-dihydro-1H-pyrazole-1-carbonyl)azetidin-3-yl)oxy)-4H-pyrrolo[2,3-d]thiazole-5-carboxylic acid], which EC50 is on record?
A: 1 to 1000 nM
